The values that follow come from patent US9777005B2 (Takeda Pharmaceutical Company Limited, priority 2012, dated 2017).

pEC50: −log10 of the molar value.

This assay concerns the target T1, human M1 receptor (hCHRM1) (Homo sapiens, UniProt P11229).
T1 construct: expressed in transfected cells; host or cells: CHO-K1
T1 sequence (P11229 1-460): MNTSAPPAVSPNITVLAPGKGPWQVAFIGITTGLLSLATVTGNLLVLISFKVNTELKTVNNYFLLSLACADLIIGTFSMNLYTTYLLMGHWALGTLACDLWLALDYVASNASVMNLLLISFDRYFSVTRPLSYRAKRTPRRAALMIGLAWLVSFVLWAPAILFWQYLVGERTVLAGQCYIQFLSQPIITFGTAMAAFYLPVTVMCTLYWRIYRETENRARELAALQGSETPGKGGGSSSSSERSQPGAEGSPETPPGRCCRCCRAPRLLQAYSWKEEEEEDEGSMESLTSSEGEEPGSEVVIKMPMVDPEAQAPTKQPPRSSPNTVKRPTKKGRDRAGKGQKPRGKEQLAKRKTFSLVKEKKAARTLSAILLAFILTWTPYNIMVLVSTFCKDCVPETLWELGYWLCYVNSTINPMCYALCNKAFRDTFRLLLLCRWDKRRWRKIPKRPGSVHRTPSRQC
In words: Measurement of M1 receptor positive allosteric modulator (M1PAM) activity, calcium fluorescence (FLIPRtetra) in CHO-K1 cells in the presence of acetylcholine at EC20. The class given is cell-based. The settings on record: in the presence of acetylcholine at EC20 (final 0.6 nM), CHO-K1 cells expressing hCHRM1; for pEC50: inflection point of M1PAM activity, read-out: IP value; for activity (%) at 10 μM: test compound 10 μM. The essentials: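 CHO-K1 cells expressing human M1 were loaded with Fluo-4 AM, and compound was added with acetylcholine at EC20 (final 0.6 nM). Calcium fluorescence was read on FLIPRtetra for 1 min. Activity was normalized to 1 μM acetylcholine (100%) and DMSO (0%), and the curve inflection point was reported as IP.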

As for `Cn1cc(-c2ccc(CN3Cc4ccnc(Oc5cc(C(C)(C)O)ccc5F)c4C3=O)cc2)cn1` [Example 308, 4-(2-fluoro-5-(2-hydroxypropan-2-yl)phenoxy)-2-(4-(1-methyl-1H-pyrazol-4-yl)benzyl)-1,2-dihydro-3H-pyrrolo[3,4-c]pyridin-3-one], the pEC50 was 7.36 and the “activity (%) at 10 μM” value turned out to be 99%.

For `Cn1cc(-c2ccc(CN3Cc4cccc(Oc5c(F)cccc5Cl)c4C3=O)cc2)cn1` [Example 12, 7-(2-chloro-6-fluorophenoxy)-2-(4-(1-methyl-1H-pyrazol-4-yl)benzyl)isoindolin-1-one], the pEC50 is 7.44 and the “activity (%) at 10 μM” value was determined as 57%.

On to `CNC(=O)c1ccc(CN2Cc3ccnc(Oc4ccc(C)cc4F)c3C2=O)cc1F` [Example 437, 2-fluoro-4-((4-(2-fluoro-4-methylphenoxy)-3-oxo-1,3-dihydro-2H-pyrrolo[3,4-c]pyridin-2-yl)methyl)-N-methylbenzamide], for which the pEC50 is 7.11 and the “activity (%) at 10 μM” value is 98%.

On to `Cc1ccn(-c2ccc(CN3Cc4cccc(O[C@H]5CCCC[C@@H]5O)c4C3=O)cc2)n1` (relative stereo) [Example 32, 7-((trans-2-hydroxycyclohexyl)oxy)-2-(4-(3-methyl-1H-pyrazol-1-yl)benzyl)isoindolin-1-one], for which the pEC50 is 8.00 and the “activity (%) at 10 μM” value turned out to be 110%.

As for `O=C1c2c(ccnc2OCC2CCCO2)CN1Cc1ccc(-c2cnn3c2CCCC3)cc1` (centres unmarked) [Example 296, 4-((tetrahydrofuran-2-yl)methoxy)-2-(4-(4,5,6,7-tetrahydropyrazolo[1,5-a]pyridin-3-yl)benzyl)-1,2-dihydro-3H-pyrrolo[3,4-c]pyridin-3-one], the pEC50 was 7.92 and the “activity (%) at 10 μM” value turned out to be 92%.

On to `O=C1c2c(cccc2O[C@@H]2COCC[C@H]2O)CN1Cc1ccc(Br)cc1` (single isomer, unassigned) [Example 271, 1,5-anhydro-2-O-(2-(4-bromobenzyl)-3-oxo-2,3-dihydro-1H-isoindol-4-yl)-4-deoxy-threo-pentitol], for which the pEC50 is 6.89 and the “activity (%) at 10 μM” value is given as 97%.

For the compound `Cn1cc(-c2ccc(CN3Cc4ccnc(OCCC5CC5)c4C3=O)c(F)c2)nn1` [Example 260, 4-(2-cyclopropylethoxy)-2-(2-fluoro-4-(1-methyl-1H-1,2,3-triazol-4-yl)benzyl)-1,2-dihydro-3H-pyrrolo[3,4-c]pyridin-3-one], the pEC50 was 7.35 and the “activity (%) at 10 μM” value is listed as 109%.

As for `CNC(=O)c1ccc(CN2Cc3ccnc(Oc4ccc(C(F)(F)F)cc4F)c3C2=O)cc1F` [Example 435, 2-fluoro-4-((4-(2-fluoro-4-(trifluoromethyl)phenoxy)-3-oxo-1,3-dihydro-2H-pyrrolo[3,4-c]pyridin-2-yl)methyl)-N-methylbenzamide], the pEC50 is 7.52 and the “activity (%) at 10 μM” value was found to be 102%.

As for `O=C1c2c(ccnc2OCC2CCCO2)CN1Cc1ccc(-c2ccnc(C(F)(F)F)c2)cc1` (centres unmarked) [Example 325, 4-((tetrahydrofuran-2-yl)methoxy)-2-(4-(2-(trifluoromethyl)pyridin-4-yl)benzyl)-1,2-dihydro-3H-pyrrolo[3,4-c]pyridin-3-one], the pEC50 was 7.33 and the “activity (%) at 10 μM” value is 116%.

In the case of `O=C1c2c(O[C@@H]3CCCC[C@H]3O)ccc(F)c2CN1Cc1ccc(-n2cccn2)cc1` (relative stereo) [Example 223, 4-fluoro-7-((trans-2-hydroxycyclohexyl)oxy)-2-(4-(1H-pyrazol-1-yl)benzyl)isoindolin-1-one], the pEC50 was 7.72 and the “activity (%) at 10 μM” value was found to be 103%.

Turning to `NC(=O)c1ccc(CN2Cc3cccc(O[C@H]4CCCC[C@@H]4O)c3C2=O)cc1` (relative stereo) [Example 34, 4-((7-((trans-2-hydroxycyclohexyl)oxy)-1-oxo-1,3-dihydro-2H-isoindol-2-yl)methyl)benzamide], the pEC50 is 8.00 and the “activity (%) at 10 μM” value stood at 92%.

On to `Cn1cc(-c2ccc(CN3Cc4nccc(OCC5CCCO5)c4C3=O)cc2)cn1` (centres unmarked) [Example 59, 6-(4-(1-methyl-1H-pyrazol-4-yl)benzyl)-4-((tetrahydrofuran-2-yl)methoxy)-6,7-dihydro-5H-pyrrolo[3,4-b]pyridin-5-one], for which the pEC50 was 7.24 and the “activity (%) at 10 μM” value stood at 136%.

As for `Cn1ccc(-c2ccc(CN3Cc4ccnc(Oc5ccc(C#N)cc5F)c4C3=O)cc2)n1` [Example 374, 3-fluoro-4-((2-(4-(1-methyl-1H-pyrazol-3-yl)benzyl)-3-oxo-2,3-dihydro-1H-pyrrolo[3,4-c]pyridin-4-yl)oxy)benzonitrile], the pEC50 is 7.80 and the “activity (%) at 10 μM” value is 103%.

For the compound `C[C@@H](O)[C@@H](C)Oc1nccc2c1C(=O)N(Cc1ccc(-c3ccn(C)n3)cc1)C2` [Example 426, 4-(((2R,3R)-3-hydroxybutan-2-yl)oxy)-2-(4-(1-methyl-1H-pyrazol-3-yl)benzyl)-1,2-dihydro-3H-pyrrolo[3,4-c]pyridin-3-one], the pEC50 was 8.06 and the “activity (%) at 10 μM” value is on record as 102%.

Turning to `O=C1c2c(ccnc2OCC2CCCO2)CN1Cc1ccc(-c2cc[nH]n2)cc1` (centres unmarked) [Example 333, 2-(4-(1H-pyrazol-3-yl)benzyl)-4-((tetrahydrofuran-2-yl)methoxy)-1,2-dihydro-3H-pyrrolo[3,4-c]pyridin-3-one], the pEC50 was 7.68 and the “activity (%) at 10 μM” value is on record as 114%.

For the compound `CCC(O)COc1nccc2c1C(=O)N(Cc1ccc(-c3cn(C)nc3C)cc1)C2` (single isomer, unassigned) [Example 276, 2-(4-(1,3-dimethyl-1H-pyrazol-4-yl)benzyl)-4-(2-hydroxybutoxy)-1,2-dihydro-3H-pyrrolo[3,4-c]pyridin-3-one], the pEC50 is 8.44 and the “activity (%) at 10 μM” value came to 99%.

Consider `CCNC(=O)c1ccc(CN2Cc3ccnc(Oc4ccc(C(F)(F)F)cc4F)c3C2=O)cc1` [Example 432, N-ethyl-4-((4-(2-fluoro-4-(trifluoromethyl)phenoxy)-3-oxo-1,3-dihydro-2H-pyrrolo[3,4-c]pyridin-2-yl)methyl)benzamide], for which the pEC50 is 7.28 and the “activity (%) at 10 μM” value turned out to be 92%.

On to `O=C(NCC1CCCO1)c1ccc(CN2Cc3cccc(OCC4CCCO4)c3C2=O)cc1` (centres unmarked) [Example 38, 4-((1-oxo-7-((tetrahydrofuran-2-yl)methoxy)-1,3-dihydro-2H-isoindol-2-yl)methyl)-N-((tetrahydrofuran-2-yl)methyl)benzamide], for which the pEC50 was 7.36 and the “activity (%) at 10 μM” value was determined as 118%.

For the compound `O=C1c2c(ccnc2O[C@H]2CCCC[C@@H]2O)CN1Cc1ccc(Br)s1` (relative stereo) [Example 400, 2-((5-bromo-2-thienyl)methyl)-4-((trans-2-hydroxycyclohexyl)oxy)-1,2-dihydro-3H-pyrrolo[3,4-c]pyridin-3-one], the pEC50 is 7.25 and the “activity (%) at 10 μM” value is recorded as 88%.

Take `Cc1nn(C)cc1-c1ccc(CN2Cc3ccnc(Oc4c(F)cc(C#N)cc4F)c3C2=O)cc1` [Example 385, 4-((2-(4-(1,3-dimethyl-1H-pyrazol-4-yl)benzyl)-3-oxo-2,3-dihydro-1H-pyrrolo[3,4-c]pyridin-4-yl)oxy)-3,5-difluorobenzonitrile]: the pEC50 was 8.59 and the “activity (%) at 10 μM” value was 85%.

For `O=C1c2c(cccc2O[C@@H]2COCC[C@H]2O)CN1Cc1ccc(Cl)cc1` (single isomer, unassigned) [Example 295, 1,5-anhydro-2-O-(2-(4-chlorobenzyl)-3-oxo-2,3-dihydro-1H-isoindol-4-yl)-4-deoxy-threo-pentitol], the pEC50 was 6.82 and the “activity (%) at 10 μM” value is given as 100%.

`O=C1c2c(ccnc2Oc2ccc(C(F)(F)F)cc2F)CN1Cc1ccc(-c2ccnnc2)cc1` [Example 309, 4-(2-fluoro-4-(trifluoromethyl)phenoxy)-2-(4-(pyridazin-4-yl)benzyl)-1,2-dihydro-3H-pyrrolo[3,4-c]pyridin-3-one]: the pEC50 was 7.57 and the “activity (%) at 10 μM” value amounted to 100%.

Regarding `Cc1cc(-c2ccc(CN3Cc4ccnc(Oc5c(F)cc(F)cc5C5CC5)c4C3=O)cc2)cnn1` [Example 361, 4-(2-cyclopropyl-4,6-difluorophenoxy)-2-(4-(6-methylpyridazin-4-yl)benzyl)-1,2-dihydro-3H-pyrrolo[3,4-c]pyridin-3-one], the pEC50 was 7.12 and the “activity (%) at 10 μM” value is on record as 100%.

As for `N#Cc1cc(F)c(Oc2cccc3c2C(=O)N(Cc2ccc(-n4cccn4)cc2)C3)c(F)c1` [Example 364, 3,5-difluoro-4-((3-oxo-2-(4-(1H-pyrazol-1-yl)benzyl)-2,3-dihydro-1H-isoindol-4-yl)oxy)benzonitrile], the pEC50 is 7.51 and the “activity (%) at 10 μM” value came to 86%.

For `Cn1cc(-c2ccc(CN3Cc4ccnc(OCc5ccccc5F)c4C3=O)c(F)c2)nn1` [Example 327, 4-((2-fluorobenzyl)oxy)-2-(2-fluoro-4-(1-methyl-1H-1,2,3-triazol-4-yl)benzyl)-1,2-dihydro-3H-pyrrolo[3,4-c]pyridin-3-one], the pEC50 was 8.19 and the “activity (%) at 10 μM” value is listed as 98%.
